Test results: ChEMBL document CHEMBL3885881, “DrugMatrix”

Species on record: Rattus norvegicus
Assay: DrugMatrix - Regimen: Daily Repeat
Assay type: toxicity, organism-based, Sprague-Dawley
Parameters: regimen Daily Repeat, gender Male, age 6-8 weeks
Conditions: in vivo, po, route oral GAVAGE, vehicle .5 % CMC; for ABSOLUTE BASOPHIL / ABSOLUTE EOSINOPHIL / ABSOLUTE LYMPHOCYTE / ABSOLUTE MONOCYTE / BASOPHIL / ERYTHROCYTE COUNT / HEMATOCRIT / HEMOGLOBIN / LYMPHOCYTE / MEAN CORPUSCULAR HEMOGLOBIN / MEAN CORPUSCULAR HEMOGLOBIN CONCENTRATION / MEAN CORPUSCULAR VOLUME / NEUTROPHIL / NUCLEATED RED BLOOD CELLS / PLATELET COUNT / ABSOLUTE SEGMENTED NEUTROPHIL: tissue Blood; for ALANINE AMINOTRANSFERASE / ALKALINE PHOSPHATASE / ASPARTATE AMINOTRANSFERASE / BLOOD UREA NITROGEN / CARBON DIOXIDE / CHOLESTEROL / CREATINE PHOSPHOKINASE / CREATININE / GLUCOSE / LACTATE DEHYDROGENASE / LIPASE / PHOSPHORUS / POTASSIUM / SODIUM / TOTAL BILIRUBIN / TOTAL PROTEIN: tissue Plasma
[1] = 0 mg/kg, 72 h, dose level Control, time 3 day
[2] = 0 mg/kg, 120 h, dose level Control, time 5 day
[3] = 0.06 mg/kg, 72 h, dose level Low, time 3 day

In the case of `CC(=O)CC(c1ccccc1)c1c(O)c2ccccc2oc1=O` (stereo not given) [WARFARIN], the “ABSOLUTE BASOPHIL” value [1] is reported as 0 CELLS/uL, the “ABSOLUTE EOSINOPHIL” value [1] is reported as 284.5 CELLS/uL and the “ABSOLUTE LYMPHOCYTE” value [1] is reported as 11670.5 CELLS/uL. The “ABSOLUTE MONOCYTE” value [1] was 420.83 CELLS/uL, the BASOPHIL [1] was 0% and the “ERYTHROCYTE COUNT” value [1] was 5.38 x10E6/uL. The HEMATOCRIT [1] was 34.05%, the HEMOGLOBIN [1] was 12.75 G/DL and the LYMPHOCYTE [1] was 88.33%. For the same molecule, the “MEAN CORPUSCULAR HEMOGLOBIN” value [1] was 23.73 pg, the “MEAN CORPUSCULAR HEMOGLOBIN CONCENTRATION” value [1] was 37.43 G/DL and the “MEAN CORPUSCULAR VOLUME” value [1] was 63.4 fL. For the same molecule, the NEUTROPHIL [1] was 7.17%, the “NUCLEATED RED BLOOD CELLS” value [1] was 0 /100WBC and the “PLATELET COUNT” value [1] was 1184.67 x10E3/uL. The “ALANINE AMINOTRANSFERASE” value [1] was 45.33 u/L, the “ALKALINE PHOSPHATASE” value [1] was 388.83 u/L and the “ASPARTATE AMINOTRANSFERASE” value [1] was 84.83 u/L. For the same molecule, the “BLOOD UREA NITROGEN” value [1] was 15.5 mg/dL, the “CARBON DIOXIDE” value [1] was 27 mmol/L and the CHOLESTEROL [1] was 76.67 mg/dL. The “CREATINE PHOSPHOKINASE” value [1] was 301 u/L, the CREATININE [1] was 0.21 mg/dL and the GLUCOSE [1] was 168.83 mg/dL. The “LACTATE DEHYDROGENASE” value [1] was 294.83 u/L, the LIPASE [1] was 9.8 u/L and the PHOSPHORUS [1] was 13.25 mg/dL. For the same molecule, the POTASSIUM [1] was 6.41 MEQ/L, the SODIUM [1] was 143.72 MEQ/L and the “TOTAL BILIRUBIN” value [1] was 0.22 mg/dL. For the same molecule, the “TOTAL PROTEIN” value [1] was 5.98 G/DL, the “ABSOLUTE BASOPHIL” value [2] was 0 CELLS/uL and the “ABSOLUTE EOSINOPHIL” value [2] was 190.67 CELLS/uL. The “ABSOLUTE LYMPHOCYTE” value [2] was 12549.5 CELLS/uL, the “ABSOLUTE MONOCYTE” value [2] was 276 CELLS/uL and the “ABSOLUTE SEGMENTED NEUTROPHIL” value [2] was 1067.17 CELLS/uL. The BASOPHIL [2] was 0%, the “ERYTHROCYTE COUNT” value [2] was 5.66 x10E6/uL and the HEMATOCRIT [2] was 35.92%. The HEMOGLOBIN [2] was 13.65 G/DL, the LYMPHOCYTE [2] was 89% and the “MEAN CORPUSCULAR HEMOGLOBIN” value [2] was 24.12 pg. For the same molecule, the “MEAN CORPUSCULAR HEMOGLOBIN CONCENTRATION” value [2] was 38.03 G/DL, the “MEAN CORPUSCULAR VOLUME” value [2] was 63.47 fL and the NEUTROPHIL [2] was 7.67%. For the same molecule, the “NUCLEATED RED BLOOD CELLS” value [2] was 0.17 /100WBC, the “PLATELET COUNT” value [2] was 1251.67 x10E3/uL and the “ALANINE AMINOTRANSFERASE” value [2] was 43.33 u/L. For the same molecule, the “ALKALINE PHOSPHATASE” value [2] was 365.67 u/L, the “ASPARTATE AMINOTRANSFERASE” value [2] was 83.67 u/L and the “BLOOD UREA NITROGEN” value [2] was 18.17 mg/dL. The “CARBON DIOXIDE” value [2] was 28.67 mmol/L, the CHOLESTEROL [2] was 71.5 mg/dL and the “CREATINE PHOSPHOKINASE” value [2] was 284.5 u/L. For the same molecule, the CREATININE [2] was 0.21 mg/dL, the GLUCOSE [2] was 161.67 mg/dL and the “LACTATE DEHYDROGENASE” value [2] was 259.67 u/L. The LIPASE [2] was 9.5 u/L, the PHOSPHORUS [2] was 12.45 mg/dL and the POTASSIUM [2] was 6.49 MEQ/L. For the same molecule, the SODIUM [2] was 144.25 MEQ/L, the “TOTAL BILIRUBIN” value [2] was 0.2 mg/dL and the “TOTAL PROTEIN” value [2] was 6.1 G/DL. For the same molecule, the “ABSOLUTE BASOPHIL” value [3] was 0 CELLS/uL, the “ABSOLUTE EOSINOPHIL” value [3] was 18.67 CELLS/uL and the “ABSOLUTE LYMPHOCYTE” value [3] was 6429.67 CELLS/uL. For the same molecule, the “ABSOLUTE MONOCYTE” value [3] was 120.33 CELLS/uL, the “ABSOLUTE SEGMENTED NEUTROPHIL” value [3] was 364.67 CELLS/uL and the BASOPHIL [3] was 0%. The “ERYTHROCYTE COUNT” value [3] was 5.26 x10E6/uL, the HEMATOCRIT [3] was 33.97% and the HEMOGLOBIN [3] was 12.8 G/DL. The LYMPHOCYTE [3] was 92.67%, the “MEAN CORPUSCULAR HEMOGLOBIN” value [3] was 24.33 pg and the “MEAN CORPUSCULAR HEMOGLOBIN CONCENTRATION” value [3] was 37.67 G/DL. The “MEAN CORPUSCULAR VOLUME” value [3] was 64.6 fL, the NEUTROPHIL [3] was 5.33% and the “NUCLEATED RED BLOOD CELLS” value [3] was 0 /100WBC. The “PLATELET COUNT” value [3] was 1234.33 x10E3/uL, the “ALANINE AMINOTRANSFERASE” value [3] was 50 u/L and the “ALKALINE PHOSPHATASE” value [3] was 307.67 u/L. For the same molecule, the “ASPARTATE AMINOTRANSFERASE” value [3] was 80.67 u/L, the “BLOOD UREA NITROGEN” value [3] was 15.33 mg/dL and the “CARBON DIOXIDE” value [3] was 28.67 mmol/L. The CHOLESTEROL [3] was 72.67 mg/dL, the “CREATINE PHOSPHOKINASE” value [3] was 222.67 u/L and the CREATININE [3] was 0.21 mg/dL. The GLUCOSE [3] was 142.33 mg/dL, the “LACTATE DEHYDROGENASE” value [3] was 174.67 u/L and the LIPASE [3] was 9.5 u/L. For the same molecule, the PHOSPHORUS [3] was 12.87 mg/dL, the POTASSIUM [3] was 6.97 MEQ/L and the SODIUM [3] was 146.9 MEQ/L. For the same molecule, the “TOTAL BILIRUBIN” value [3] was 0.23 mg/dL and the “TOTAL PROTEIN” value [3] was 6.03 G/DL.
